Common to all, as to assay: NCI anticancer screen, dose series, 48 h
Assay [1] relates to LOX IMVI melanoma.
Assay [2] concerns M14 melanoma.
The test system of assay [3] is HT29 colon.
Assay [4] has as its system HCT-116 colon.
In assay [5] the test system is SF-295 CNS.
The test system of assay [6] is UACC-257 melanoma.
The test system of assay [7] is SNB-75 CNS.
Assay [8] relates to HS 578T breast.

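Test compounds were applied to cells in 96-well plates for 48 hours at 5 doses. At the GI50, growth is halved. TGI is the concentration that stops growth completely.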

For the compound `O=S(=O)(Nc1ccccc1)c1ccc(C2CC3(Cl)C(Cl)=C(Cl)C2(Cl)C3(Cl)Cl)cc1` (configuration not stated), the GI50 is 1.84 µM in assay [1]; 2.19 µM in assay [2]; 2.37 µM in assay [3]; 1.81 µM in assay [4]; 2.21 µM in assay [5]; 2.64 µM in assay [6]. Moreover, the GI50 in assay [7] is 2.61 µM. Moreover, the TGI in assay [1] worked out at 3.47 µM; in assay [2], 4.61 µM; in assay [3], 5.41 µM; in assay [4], 3.44 µM; in assay [5], 5.97 µM; in assay [6], 6.27 µM. In addition, the TGI in assay [7] was 9.09 µM.
For the compound `OC[C@H]1C[C@](O)(c2ccc(F)cc2)[C@@H](c2ccc(F)cc2)O1`, the GI50 is above 100 µM in assay [1]; 44.2 µM in assay [8]; above 100 µM in assay [3]; 90.5 µM in assay [4]; above 100 µM in assay [5]; above 100 µM in assay [6]. The GI50 in assay [7] is above 100 µM. Further, the TGI in assay [1], in assay [8], in assay [3], in assay [4], in assay [5] and in assay [6] was above 100 µM in each case. In addition, the TGI in assay [7] is above 100 µM.
Regarding `CCCCCCCCCCN=C(N)c1ccc(N2CCN(c3ccc(C(N)=NCCCCCCCCCC)cc3)CC2)cc1`, the GI50 in assay [1] was 3.5 µM; in assay [2], 18 µM; in assay [3], 3.37 µM; in assay [5] it was 1.81 µM; in assay [6] it was 9.81 µM; in assay [7] it was 2.34 µM. Moreover, the TGI in assay [1] is above 50 µM; in assay [2] it was above 50 µM; in assay [3], above 50 µM; in assay [5], 6.12 µM; in assay [6] it was 26.5 µM; in assay [7], above 50 µM.
Regarding `O=C1Nc2ccc(Cl)cc2/C1=N/c1nc(-c2ccc(Cl)cc2)cs1`, the GI50 in assay [2] was 1.4 µM; in assay [3] it was 1.87 µM; in assay [4], 1.3 µM. Also, the TGI in assay [2] turned out to be 2.82 µM; in assay [3], 5.34 µM; in assay [4], 2.71 µM.
Take `O/N=C1/C(=C/c2ccc(OCc3ccccc3)cc2)CCCC1C(NO)c1ccc(OCc2ccccc2)cc1` (configuration not stated): the TGI in assay [1] is 24.5 µM; in assay [2], above 100 µM; in assay [3], above 100 µM; in assay [4] it was above 100 µM; in assay [6] it was above 100 µM; in assay [7], 97.9 µM.
Turning to `O=[N+]([O-])c1ccc(/C=C(/c2ccc([N+](=O)[O-])o2)S(=O)(=O)c2ccccc2)cc1`, the TGI in assay [2], in assay [8], in assay [3], in assay [4], in assay [5] and in assay [6] was above 100 µM in each case. This compound also gave a TGI in assay [7] above 100 µM.
`C#CCCCCCC(=O)N[C@H]1C=C[C@@H]2/C=C(C)/C=C/[C@@H](C)[C@H]([C@H](C)[C@H](O)[C@@H](C)NC(C)=O)OC(=O)/C=C/C=C(C)\C=C\[C@]2(C)C1`: the GI50 in assay [1] is below 0.004 µM; in assay [8], 0.00422 µM; in assay [3], below 0.004 µM; in assay [4], below 0.004 µM; in assay [5] it was below 0.004 µM; in assay [6] it was below 0.004 µM. Further, in assay [7], the GI50 is 0.0127 µM. Moreover, the TGI in assay [1] is below 0.004 µM; in assay [8] it was above 40 µM; in assay [3], 25.1 µM; in assay [4] it was above 40 µM; in assay [5], 0.0182 µM; in assay [6] it was 0.0324 µM. The TGI in assay [7] is above 40 µM.
Take `COc1cc2c(cc1OCCN1CCN(CCN3C(=O)c4cccc5cccc(c45)C3=O)CC1)N=C[C@@H]1CCCN1C2=O`: the GI50 is 32.7 µM in assay [1]; 14.5 µM in assay [2]; 24.9 µM in assay [8]; 22.6 µM in assay [3]; 22.9 µM in assay [5]; 21.1 µM in assay [6]. Moreover, the GI50 in assay [7] is 20.4 µM. Moreover, the TGI is above 100 µM in assay [1]; 28.7 µM in assay [2]; 54.4 µM in assay [8]; 43.9 µM in assay [3]; 41.1 µM in assay [5]; 48.3 µM in assay [6]. Further, in assay [7], the TGI turned out to be 37.5 µM.
Turning to `COc1ccc([C@@H]2[C@@H](Oc3ccccc3)C(=O)N2c2cc(OC)c(OC)c(OC)c2)cc1F`, the GI50 was 0.091 µM in assay [1]; 0.0818 µM in assay [2]; 0.0864 µM in assay [8]; 0.211 µM in assay [3]; 0.161 µM in assay [4]; 0.0785 µM in assay [5]. For the same compound, the GI50 in assay [7] is 0.0567 µM. The TGI in assay [1] is above 100 µM; in assay [2], 1.72 µM; in assay [8] it was 77.9 µM; in assay [3] it was 0.684 µM; in assay [4], 2.45 µM; in assay [5] it was above 100 µM. Further, the TGI in assay [7] was above 100 µM.
In the case of `C=CCN(CC=C)Cc1c[nH]c2ccccc12`, the GI50 in assay [1] is 27.4 µM; in assay [3] it was 41.9 µM; in assay [4], 14.6 µM; in assay [5] it was 21 µM; in assay [6], 8.63 µM; in assay [7], above 100 µM. Also, the TGI is above 100 µM in assay [1]; above 100 µM in assay [3]; 32.1 µM in assay [4]; above 100 µM in assay [5]; 28 µM in assay [6]; above 100 µM in assay [7].
In the case of `CN(C)CCCC1(c2ccc(F)cc2)OCc2cc(-c3csc4ccccc34)ccc21` (configuration not stated), the GI50 in assay [1] is 1.65 µM; in assay [2], 1.66 µM; in assay [8], 1.74 µM; in assay [3] it was 1.55 µM; in assay [5] it was 1.64 µM; in assay [6], 1.78 µM. The GI50 in assay [7] is 1.35 µM. Also, the TGI came to 3.16 µM in assay [1]; 3.36 µM in assay [2]; 3.76 µM in assay [8]; 3.46 µM in assay [3]; 3.04 µM in assay [5]; 3.49 µM in assay [6]. Also, in assay [7], the TGI was 2.8 µM.

(Values after PubChem BioAssay (NCI).)
